Laboratory results from patent US20250277208A1, “Method of Peptide Library Construction and Peptides Thereof” (Alcamena Stem Cell Therapeutics, LLC, priority 2024, published 2025).
Where “and” joins values, the source holds several entries; their conditions need not be identical. Equal entries are not always repeated. Square brackets hold non-standard residues; d marks the D form. Ends that are not written are not given here. Phe(4-F) = N[C@@H](Cc1ccc(F)cc1)C(=O)O; Gla = N[C@@H](CC(C(=O)O)C(=O)O)C(=O)O; Cha = N[C@@H](CC1CCCCC1)C(=O)O

biological target: T1, Biotinylated recombinant human IL-6 (human, UniProt P05231 30-212, biotinylated (sites not given)); assay: SPR (Biacore), IL-6 on chip; conditions: not given
T1 construct: In the cell bioassay IL-6 (0.5 nM) was used in solution; also called Interleukin-6; IL-6-Biotin

| Kd [nM] | Molecule |
| --- | --- |
| 224 | Ac-TVRDLLRRMCHIVG-NH2 [Peptide 55] |
| 305 | Ac-SIRDLLRRMCHIVG-NH2 [Peptide 56] |

Second part, the molecule before the results:

| Molecule | Kd [nM] |
| --- | --- |
| Ac-SFRDLLRRMCHIVG-NH2 [Peptide 63] | 162 |
| Ac-AVRDLLRRMCHIVG-NH2 [Peptide 62] | 519 |

biological target: T2, IL-6 (Homo sapiens, UniProt P05231); assay: Biacore surface plasmon resonance binding of peptides to immobilised IL-6; conditions: not given
T2 construct: purchased R&D Systems BT7270B
Source text: Two DNA fragments were amplified from a synthetic fragment of the IL-6R. The 5′ fragment was amplified with forward primer and a mixture of 432 reverse primers, each containing an overhang of 6 codons. The 3′ fragment was amplified with a mixture of 432 forward primers, also containing overhangs of six degenerate codons and the reverse primer. Either the first or the second nucleotide of each codon was replaced with a degenerate base. Following PCR amplification, DNA fragments were phosphorylated and ligated leading to various sequence rearrangements shown at the bottom of the FIG. 3. Four hundred thirty-two forward and reverse oligos with an overhang of 6 codons from the IL-6R binding domain were used for PCR. A degenerate nucleotide was inserted at the first or second position of each codon. When ligated, these sequences generated a library of 1×10^13 different DNA sequences. The library of DNA sequences was taken through eight rounds of mRNA Display generating a peptide library. Eighteen of the most abundant peptides in the peptide library were synthesized in a linear form and tested for binding to IL-6 using Biacore. One of the peptides (#9) (“Peptide 9”) from the peptide library, with the sequence of […] The twelve non-terminal residues represent the PepFusion library-derived DNA sequences, while N-terminal serine and C-terminal glycine come from the flanking linkers and were kept as a precaution, in case linker sequences contributed to peptide interaction with its target.
Binding reactions were performed in HBS-P/2% DMSO buffer (10 mM Hepes, pH 7.4, 150 mM NaCl, 0.05% P-20, 2% DMSO), which was filtered through […] filters and degassed before use. Biotinylated recombinant human IL-6 (IL-6-Biotin) was bound to the surface of a Biacore SA sensor chip of a Biacore T200 surface plasmon resonance unit as follows. The streptavidin surface of the chip (flow cells 1 and 2) was activated by injecting 20 μl of 1 M NaCl/50 mM NaOH at 20 μl/min, in 3 pulses. Biotinylated Recombinant Human IL6 was diluted with HBS-P buffer and an aliquot of 100 μl (2 micrograms/ml) was injected into flow cell 2 at 5 microliters/min to yield a signal of 1400 response units (RU) (10 microliters were injected). Any remaining activated residues on the streptavidin surface of flow cells 1 and 2 were blocked with 30 microliters 500 nM free Biotin.
(§1) Affinity scouting assay was performed at a flow rate of 30 microliters/min at 25° C. The analyte (60 microliter aliquots of peptides, at concentrations of 20 μM in HBS-P/2% DMSO buffer) was injected into flow cells 1 and 2 and the association reaction was recorded. The surface was then washed with HBS-P/2% DMSO for 3 min and the dissociation of the analyte from the bound IL6 was followed over time. The surfaces of the flow cells were regenerated with 30 microliters of 10 mM NaOH, followed 50 microliters of HBS-P/2% DMSO buffer.
as §1, with “Kinetics analysis of binding was performed” for “Affinity scouting assay was performed”, “concentrations of 0, 1.25 μM, 2.5 μM, 5 μM, 10 μM and 20 μM” for “concentrations of 20 μM”, “DMSO buffer. Sensorgrams were analyzed using BIAeveluation 3.2.1 software (Cytiva). Values from the reference flow cell were subtracted to obtain the values for specific binding. Data were globally fitted to the Langmuir model for a 1:1 mass transfer binding.” for “DMSO buffer.”

| binding to IL-6, in words | Molecule |
| --- | --- |
| no activity | FD(Cha)DIHLL(4F)LPTEWEK(Cla)KNEE (FD[Cha]DIHLL[Phe(4-F)]LPTEWEK[Gla]KNEE) [PN-2519, reference compound] |
| no binding | SVKDLQHGLRHVVG [Peptide C1, control peptide homologous to peptide 9, devoid of any mutations; two unmutated fragments of IL-6R, reference compound] |

Continued, molecule first:

| Molecule | binding to IL-6, in words |
| --- | --- |
| INTLLSEINSILLDIISLL [RA07, published control peptide described in Kobayashi et al., Mol Biotechnol 2011, reference compound] | did not bind |
| FD(hL)DIHLLELPTEWEKDKNEE [PN-1974(2), peptide PN-1974 with termini protected by acetylation and amidation, reference compound] | eliminated its activity |
| SVRDLLRRMCHCVG [Peptide 67] | no binding |

same assay, conditions: KD (nM) P < 0.05, Table 1; N and C termini not protected; cells printed in μM

| Molecule | Kd [nM] |
| --- | --- |
| GNSRDLLRRMCHIVG [Peptide 42, GNSRDLLRRMCHIVG] | > 10000 |

same assay, conditions: Table 1; N and C termini not protected; cells printed in μM; read-out: KD (nM) P < 0.05

| Kd [nM] | Molecule |
| --- | --- |
| > 10000 | SVRIYLRRMCHIVG [Peptide 20, SVRIYLRRMCHIVG] |
| > 10000 | SVRDLHKMMCHIVG [Peptide 25, SVRDLHKMMCHIVG] |
| > 10000 | SVRDLPRIMCHIVG [Peptide 31, SVRDLPRIMCHIVG] |

Continued, molecule first:

| Molecule | Kd [nM] |
| --- | --- |
| SVRDLLRRMCHPRLG [Peptide 46, SVRDLLRRMCHPRLG] | > 10000 |
| SVRDLLNRICHIVG [Peptide 21, SVRDLLNRICHIVG] | > 10000 |
| SNYTLLRRMCHIVG [Peptide 36, SNYTLLRRMCHIVG] | > 10000 |
| LEIRDLLRRMCHIVG [Peptide 26, LEIRDLLRRMCHIVG] | > 10000 |
| SVHIHLRRMCHIVG [Peptide 34, SVHIHLRRMCHIVG] | > 10000 |
| LGHRDLLRRMCHIVG [Peptide 29, LGHRDLLRRMCHIVG] | > 10000 |
| SVRDPHNRMCHIVG [Peptide 22, SVRDPHNRMCHIVG] | > 10000 |
| SVSIHLRRMCHIVG [Peptide 32, SVSIHLRRMCHIVG] | > 10000 |
| SVRDLLHGRCHIVG [Peptide 40, SVRDLLHGRCHIVG] | > 10000 |
| SVRDNFHRMCHIVG [Peptide 30, SVRDNFHRMCHIVG] | > 10000 |
| SVRDLLRMFCHIVG [Peptide 23, SVRDLLRMFCHIVG] | > 10000 |

same assay, conditions: Table 1; termini not protected

| binding affinity compared with parent peptide 9, in words | Molecule |
| --- | --- |
| improved binding affinity | H-SVRDLLRRMKVCVG-OH [Peptide 27, SVRDLLRRMKVCVG] |
| improved binding affinity | H-FAFRDLLRRMCHIVG-OH [Peptide 45, FAFRDLLRRMCHIVG] |
| improved binding affinity | H-ATIRDLLRRMCHIVG-OH [Peptide 38, ATIRDLLRRMCHIVG] |

The next lines start with the molecule.

| Molecule | binding affinity compared with parent peptide 9, in words |
| --- | --- |
| NERRDLLRRMCHIVG [Peptide 41, NERRDLLRRMCHIVG] | reduced binding affinity |
| H-ETIRDLLRRMCHIVG-OH [Peptide 24, ETIRDLLRRMCHIVG] | improved binding affinity |
| SVRDLQKOMCHIVG (SVRDLQKQMCHIVG; not fully specified) [Peptide 44] | completely lost binding affinity |
| H-SVRDLIRMMCHIVG-OH [Peptide 33, SVRDLIRMMCHIVG] | improved binding affinity |
| CVYRDLLRRMCHIVG [Peptide 35] | completely lost binding affinity |

same assay, conditions: Table 2; N terminus acetylated, C terminus amidated; cells printed in μM; read-out: KD (nM) P < 0.05

| Kd [nM] | Molecule |
| --- | --- |
| > 10000 | Ac-TIRDLIRMMKHIVG-NH2 [Peptide 99, TIRDLIRMMKHIVG] |
| > 10000 | Ac-ATIRDLLRRMKHIVG-NH2 [Peptide 94, ATIRDLLRRMKHIVG] |
| > 10000 | Ac-SFRDLLRRMKHIVG-NH2 [Peptide 88, SFRDLLRRMKHIVG] |
| > 10000 | Ac-TIRDLLRMMKHIVG-NH2 [Peptide 98, TIRDLLRMMKHIVG] |
| > 10000 | Ac-TIRDLLRRMKHIVG-NH2 [Peptide 97, TIRDLLRRMKHIVG] |
| > 10000 | Ac-ATIRDLIRMMKHIVG-NH2 [Peptide 96, ATIRDLIRMMKHIVG] |

More lines, now with the values behind:

| Molecule | Kd [nM] |
| --- | --- |
| Ac-ATIRDLLRMMKHIVG-NH2 [Peptide 95, ATIRDLLRMMKHIVG] | > 10000 |
| Ac-FSFRDLLRMMKHIVG-NH2 [Peptide 92, FSFRDLLRMMKHIVG] | > 10000 |
| Ac-SFRDLLRMMKHIVG-NH2 [Peptide 89, SFRDLLRMMKHIVG] | > 10000 |
| Ac-FSFRDLLRRMKHIVG-NH2 [Peptide 91, FSFRDLLRRMKHIVG] | > 10000 |
| Ac-FSVRDLLRMMKHIVG-NH2 [Peptide 86, FSVRDLLRMMKHIVG] | > 10000 |
| Ac-FSVRDLLRRMKHIVG-NH2 [Peptide 85, FSVRDLLRRMKHIVG] | > 10000 |
| Ac-FSFRDLIRMMCHIVG-NH2 [Peptide 74, FSFRDLIRMMCHIVG] | > 10000 |

same assay, conditions: Table 2; termini protected

| affinity compared with the parent sequence, in words | Molecule |
| --- | --- |
| slightly better affinity | Ac-SVRDLLRRMCVIVG-NH2 [Peptide 66, SVRDLLRRMCVIVG] |
| no significant effect | Ac-SVRDLLRMMCHIVG-NH2 [Peptide 69, SVRDLLRMMCHIVG] |
| slightly better affinity | Ac-SVRDLLRRMKHIVG-NH2 [Peptide 65, SVRDLLRRMKHIVG] |
| not improved | Ac-FSFRDLLRMMCHIVG-NH2 [Peptide 80, FSFRDLLRMMCHIVG] |
| not improved | Ac-FAFRDLLRMMCHIVG-NH2 [Peptide 75, FAFRDLLRMMCHIVG] |
| lowered affinity | Ac-SVRDLIRRMCHIVG-NH2 [Peptide 68, SVRDLIRRMCHIVG] |
| greatly improved | Ac-TIRDLLRRMCHIVG-NH2 [Peptide 71, TIRDLLRRMCHIVG] |

same assay, conditions: termini not protected; read-out: KD

| Kd [nM] | Molecule |
| --- | --- |
| 2500 | H-SVRDLLRRMCHIVG-OH [Peptide 9, SVRDLLRRMCHIVG] |

same assay, conditions: termini protected (acetylated, amidated); read-out: KD

| Kd | Molecule |
| --- | --- |
| 563 nM | Ac-ATIRDLIRMMKVIVG-NH2 [Peptide 83, ATIRDLIRMMKVIVG] |
| ≤ 1500 nM | Ac-FAFRDLIRMMCVIVG-NH2 [Peptide 78, FAFRDLIRMMCVIVG] |
| ≤ 1500 nM and 405 nM | Ac-FAFRDLIRMMKHIVG-NH2 [Peptide 77, FAFRDLIRMMKHIVG] |

Second part, the molecule before the results:

| Molecule | Kd |
| --- | --- |
| Ac-FSFRDLLRRMCHIVG-NH2 [Peptide 72, FSFRDLLRRMCHIVG] | 27 nM |
| Ac-FAFRDLIRMMCHIVG-NH2 [Peptide 58, FAFRDLIRMMCHIVG] | ~100 nM and 71 nM |
| Ac-FAFRDLIRMMKVIVG-NH2 [Peptide 76, FAFRDLIRMMKVIVG] | ≤ 1500 nM |
| Ac-FAFRDLIRMMKVCVG-NH2 [Peptide 79, FAFRDLIRMMKVCVG] | 247 nM |
| Ac-ATIRDLIRMMCHIVG-NH2 [Peptide 51, ATIRDLIRMMCHIVG] | ~100 nM and 128 nM |
| Ac-ATIRDLIRMMKVCVG-NH2 [Peptide 82, ATIRDLIRMMKVCVG] | 108 nM |
